The supplement of paper PMC10331698
± gives the standard deviation of the averaged measurements.

What was measured:
Assay in all cases: level (log10 ratio to DMSO vehicle control); higher = higher biomarker level / cell amount than vehicle control
[1] = compound: C=C(C)C(=O)OCCC(F)(F)C(F)(F)C(F)(F)C(F)(F)C(F)(F)C(F)(F)F [6:2 Fluorotelomer methacrylate]; settings: in DMSO
Method: (§1)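 BioMAP Diversity Plus panel of 12 human primary cell co-culture systems (3C, 4H, LPS, SAg, BT, BF4T, BE3C, CASM3C, HDF3CGF, KF3CT, MyoF, Mphg). Compounds were added 1 h before stimulation and left for 24 h (MyoF 48 h; BT 72 h for soluble read-outs or 6 d for IgG). Biomarkers were read by ELISA, cytotoxicity by SRB, PBMC viability and proliferation by Alamar Blue. Each well value was divided by the mean of 8 DMSO control wells on the same plate and log10 transformed; duplicate blinded samples were tested at 4 concentrations.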

[2] = compound: C=CC(=O)OCC(F)(F)C(F)(F)C(F)(F)COC(=O)C=C [1H,1H,5H,5H-Perfluoro-1,5-pentanediol diacrylate]; settings: 6700 nM; in DMSO
Method: as §1

[3] = compound: COC(=O)C(F)(F)C(F)(F)OC(F)(C(F)(F)F)C(F)(F)OC(F)=C(F)F [Methyl perfluoro(3-(1-ethenyloxypropan-2-yloxy)propanoate)]; settings: in DMSO
Method: as §1

[4] = compound: FC(F)(F)C(F)(F)C(F)(F)C(F)(F)C(F)(F)C(F)(F)C(F)(F)I [1-Iodopentadecafluoroheptane]; settings: in DMSO
Method: as §1

[5] = compound: FC(F)(F)C(F)(F)C(F)(F)C(F)(F)C(F)(F)C(F)(F)CC1CO1 [3-(Perfluorohexyl)-1,2-epoxypropane]; settings: in DMSO
Method: as §1

[6] = compound: FC(F)(F)C(F)(F)C(F)(F)CC1CO1 [1H,1H-Heptafluorobutyl epoxide]; settings: in DMSO
Method: as §1

Heptafluorobutyl iodide = compound: FC(F)(F)C(F)(F)C(F)(F)CI [Heptafluorobutyl iodide]; settings: in DMSO
Method: as §1

[7] = compound: FC(F)(F)C(F)(F)CNCC(F)(F)C(F)(F)F [Bis(1H,1H-perfluoropropyl)amine]; settings: in DMSO
Method: as §1

Octafluoroadipamide = compound: NC(=O)C(F)(F)C(F)(F)C(F)(F)C(F)(F)C(N)=O [Octafluoroadipamide]; settings: in DMSO
Method: as §1

Nonafluoropentanamide = compound: NC(=O)C(F)(F)C(F)(F)C(F)(F)C(F)(F)F [Nonafluoropentanamide]; settings: in DMSO
Method: as §1

[8] = compound: NC(=O)C(F)(F)C(F)(F)C(F)(F)C(F)F; settings: in DMSO
Method: as §1

[9] = compound: NS(=O)(=O)C(F)(F)C(F)(F)C(F)(F)C(F)(F)C(F)(F)C(F)(F)F [Perfluorohexanesulfonamide]; settings: in DMSO
Method: as §1

[10] = compound: O=C(O)C(F)(F)C(F)(F)C(F)(F)C(F)(F)C(F)(F)C(F)(F)C(F)(F)C(F)(F)C(F)(F)C(F)F [11-H-Perfluoroundecanoic acid]; settings: in DMSO
Method: as §1

[11] = compound: O=C(O)C=CC(F)(C(F)(F)F)C(F)(F)F [3-(Perfluoroisopropyl)-2-propenoic acid]; settings: in DMSO
Method: as §1

[12] = compound: O=S(=O)(Cl)C(F)(F)C(F)(F)C(F)(F)C(F)(F)C(F)(F)C(F)(F)C(F)(F)C(F)(F)F [Perfluoro-1-octanesulfonyl chloride]; settings: in DMSO
Method: as §1

[13] = compound: O=S(=O)(F)C(F)(F)C(F)(F)C(F)(F)C(F)(F)C(F)(F)C(F)(F)C(F)(F)C(F)(F)F [Perfluorooctanesulfonyl fluoride]; settings: in DMSO
Method: as §1

[14] = compound: O=S(=O)(O)C(F)(F)C(F)(F)C(F)(F)C(F)(F)C(F)(F)C(F)(F)C(F)(F)C(F)(F)C(F)(F)C(F)(F)F [Sodium perfluorodecanesulfonate]; settings: in DMSO
Method: as §1

[15] = compound: O=S(=O)(O)CCC(F)(F)C(F)(F)C(F)(F)C(F)(F)C(F)(F)C(F)(F)F [6:2 Fluorotelomer sulfonic acid]; settings: in DMSO
Method: as §1

Hexafluoroamylene glycol = compound: OCC(F)(F)C(F)(F)C(F)(F)CO [Hexafluoroamylene glycol]; settings: in DMSO
Method: as §1

BE3C:CD54/ICAM-1
level (log10) ([1]; 6700 nM): -0.0055 ± 0.0064 | level (log10) ([1]; 20000 nM): -0.0085 ± 0.011 | level (log10) ([1]; 60000 nM): 0.015 ± 0.0099 | level (log10) [2]: -0.018 ± 0.014 | level (log10) ([3]; 6700 nM): -0.0205 ± 0.005 | level (log10) ([3]; 20000 nM): -0.017 ± 0.0014 | level (log10) ([4]; 6700 nM): -0.0125 ± 0.026 | level (log10) ([4]; 20000 nM): 0.006 ± 0.013 | level (log10) ([5]; 6700 nM): 0.0035 ± 0.00071 | level (log10) ([5]; 20000 nM): 0 ± 0.0071 | level (log10) ([5]; 60000 nM): -0.0005 ± 0.005 | level (log10) ([6]; 6700 nM): 0.001 ± 0.0028 | level (log10) ([6]; 20000 nM): -0.013 ± 0.034 | level (log10) ([6]; 60000 nM): 0.0055 ± 0.015 | level (log10) (Heptafluorobutyl iodide; 6700 nM): 0.013 ± 0.021 | level (log10) (Heptafluorobutyl iodide; 20000 nM): 0.005 ± 0.0071 | level (log10) (Heptafluorobutyl iodide; 60000 nM): 0.0085 ± 0.0078 | level (log10) ([7]; 6700 nM): -0.012 ± 0.0085 | level (log10) ([7]; 20000 nM): -0.008 ± 0.0099 | level (log10) ([7]; 60000 nM): 0.0085 ± 0.044 | level (log10) (Octafluoroadipamide; 6700 nM): -0.0135 ± 0.025 | level (log10) (Octafluoroadipamide; 20000 nM): -0.0185 ± 0.016 | level (log10) (Octafluoroadipamide; 60000 nM): 0.016 ± 0.034 | level (log10) (Nonafluoropentanamide; 6700 nM): 0.0025 ± 0.012 | level (log10) (Nonafluoropentanamide; 20000 nM): -0.009 ± 0.028 | level (log10) (Nonafluoropentanamide; 60000 nM): 0.0025 ± 0.03 | level (log10) ([8]; 6700 nM): -0.006 ± 0.0042 | level (log10) ([8]; 20000 nM): -0.002 ± 0.0042 | level (log10) ([8]; 60000 nM): 0.0155 ± 0.016 | level (log10) ([9]; 6700 nM): -0.0105 ± 0.025 | level (log10) ([9]; 20000 nM): 0.003 ± 0.0028 | level (log10) ([9]; 60000 nM): 0.017 ± 0.013 | level (log10) ([10]; 6700 nM): -0.0105 ± 0.0021 | level (log10) ([10]; 20000 nM): -0.35 ± 0.031 | level (log10) ([11]; 6700 nM): 0.002 ± 0.0057 | level (log10) ([11]; 20000 nM): -0.005 | level (log10) ([11]; 60000 nM): 0.004 ± 0.0071 | level (log10) ([12]; 6700 nM): -0.0045 ± 0.0021 | level (log10) ([12]; 20000 nM): 0.036 ± 0.0071 | level (log10) ([12]; 60000 nM): -0.69 ± 0.11 | level (log10) ([13]; 6700 nM): -0.0035 ± 0.019 | level (log10) ([13]; 20000 nM): -0.0055 ± 0.0092 | level (log10) ([13]; 60000 nM): 0.0045 ± 0.026 | level (log10) ([14]; 1500 nM): 0.0015 ± 0.029 | level (log10) ([14]; 4400 nM): -0.0075 ± 0.00071 | level (log10) ([14]; 13000 nM): 0.034 | level (log10) ([14]; 40000 nM): 0.0425 ± 0.011 | level (log10) ([15]; 6700 nM): -0.006 ± 0.0085 | level (log10) ([15]; 20000 nM): -0.0145 ± 0.005 | level (log10) ([15]; 60000 nM): -0.04 ± 0.023 | level (log10) (Hexafluoroamylene glycol; 6700 nM): 0.007 ± 0.016 | level (log10) (Hexafluoroamylene glycol; 20000 nM): 0.002 ± 0.0057 | level (log10) (Hexafluoroamylene glycol; 60000 nM): -0.001 ± 0.0014

BE3C:CD87/uPAR
level (log10) ([1]; 6700 nM): -0.047 ± 0.027 | level (log10) ([1]; 20000 nM): -0.0335 ± 0.019 | level (log10) ([1]; 60000 nM): -0.0305 ± 0.028 | level (log10) [2]: 0.0195 ± 0.0064 | level (log10) ([3]; 6700 nM): 0.038 ± 0.038 | level (log10) ([3]; 20000 nM): 0.05 ± 0.041 | level (log10) ([4]; 6700 nM): 0.001 ± 0.034 | level (log10) ([4]; 20000 nM): 0.008 ± 0.011 | level (log10) ([5]; 6700 nM): 0.0085 ± 0.029 | level (log10) ([5]; 20000 nM): 0.032 ± 0.037 | level (log10) ([5]; 60000 nM): 0.06 ± 0.0028 | level (log10) ([6]; 6700 nM): 0.0105 ± 0.0092 | level (log10) ([6]; 20000 nM): -0.004 ± 0.024 | level (log10) ([6]; 60000 nM): -0.004 ± 0.023 | level (log10) (Heptafluorobutyl iodide; 6700 nM): 0.0115 ± 0.033 | level (log10) (Heptafluorobutyl iodide; 20000 nM): -0.0435 ± 0.016 | level (log10) (Heptafluorobutyl iodide; 60000 nM): -0.001 ± 0.0057 | level (log10) ([7]; 6700 nM): -0.0335 ± 0.049 | level (log10) ([7]; 20000 nM): -0.0475 ± 0.06 | level (log10) ([7]; 60000 nM): -0.012 ± 0.018 | level (log10) (Octafluoroadipamide; 6700 nM): -0.0295 ± 0.043 | level (log10) (Octafluoroadipamide; 20000 nM): -0.044 ± 0.071 | level (log10) (Octafluoroadipamide; 60000 nM): -0.0195 ± 0.093 | level (log10) (Nonafluoropentanamide; 6700 nM): 0.012 | level (log10) (Nonafluoropentanamide; 20000 nM): 0.0185 ± 0.015 | level (log10) (Nonafluoropentanamide; 60000 nM): 0.0115 ± 0.018 | level (log10) ([8]; 6700 nM): -0.02 ± 0.011 | level (log10) ([8]; 20000 nM): -0.0205 ± 0.0035 | level (log10) ([8]; 60000 nM): -0.0145 ± 0.015 | level (log10) ([9]; 6700 nM): 0.0005 ± 0.0035 | level (log10) ([9]; 20000 nM): -0.0055 ± 0.018 | level (log10) ([9]; 60000 nM): -0.13 ± 0.018 | level (log10) ([10]; 6700 nM): 0.0235 ± 0.026 | level (log10) ([10]; 20000 nM): -0.264 ± 0.019 | level (log10) ([11]; 6700 nM): 0.005 ± 0.0085 | level (log10) ([11]; 20000 nM): 0.002 ± 0.045 | level (log10) ([11]; 60000 nM): 0.052 ± 0.038 | level (log10) ([12]; 6700 nM): 0.0825 ± 0.025 | level (log10) ([12]; 20000 nM): 0.0795 ± 0.0064 | level (log10) ([12]; 60000 nM): -0.276 ± 0.052 | level (log10) ([13]; 6700 nM): -0.0005 ± 0.011 | level (log10) ([13]; 20000 nM): 0.0155 ± 0.00071 | level (log10) ([13]; 60000 nM): 0.0375 ± 0.0064 | level (log10) ([14]; 1500 nM): 0.029 ± 0.011 | level (log10) ([14]; 4400 nM): 0.066 ± 0.02 | level (log10) ([14]; 13000 nM): 0.005 ± 0.0014 | level (log10) ([14]; 40000 nM): -0.179 ± 0.011 | level (log10) ([15]; 6700 nM): 0.003 ± 0.0014 | level (log10) ([15]; 20000 nM): -0.0065 ± 0.011 | level (log10) ([15]; 60000 nM): 0.0235 ± 0.018 | level (log10) (Hexafluoroamylene glycol; 6700 nM): -0.0205 ± 0.011 | level (log10) (Hexafluoroamylene glycol; 20000 nM): -0.016 ± 0.037 | level (log10) (Hexafluoroamylene glycol; 60000 nM): 0.0025 ± 0.022
